Measured values reported in US4156729A, “1,2-Benzisothiazolin-3-ones” (Bayer Aktiengesellschaft, priority 1976, dated 1979).
Values after ≈ are worked out from the molar mass of the structure shown.

Columns and labels:
Rabbit PRP [1] = assay: In vitro ADP-induced thrombocyte aggregation inhibition, rabbit PRP; type: cell-based; conditions: Oryctolagus cuniculus, 10 min preincubation, 37° C.
Description: (§1) In vitro: Blood from healthy human test subjects of both sexes, and blood of rabbits and rats is used. One part of 3.8% strength aqueous sodium citrate solution, as an anticoagulant, is mixed with nine parts of blood. Centrifugation of this blood gives a platelet-rich citrate plasma (PRP); see generally Jurgens/Beller, Klinische Methoden der Blutgerinnungsanalyse, Thieme Verlag, Stuttgart (1959).
(§2) A mixture of 0.8 ml of PRP and 0.1 ml of the active compound solution is preincubated for 10 minutes at 37° C. Thrombocyte aggregation is then determined by the turbidimetric method of Born [J. Physiol. (London) 162, 67 (1962)] in an aggregometer at 37° C. [see generally Therapeutische Berichte, 47, 80-86 (1975)]. An aggregation-initiating agent (0.1 ml) such as collagen or ADP is thus added to the preincubated sample. The change in the optical density in the sample of PRP is recorded over a period of 6 minutes and the percentage inhibition is then calculated from the integrated area or the deflection.
(§3) Table I presents ranges of concentration at which the thrombocyte aggregation is inhibited by a value of 50% utilizing 2-(2-diethylaminoethyl)-4,6-dimethyl-1,2-benzisothiazolin-3-one (as the 1,5-naphthalenedisulfonate hemisalt) [compound A].

[2] = system: thrombocyte aggregation in PRP of rabbits; assay: Inhibition of ADP-induced thrombocyte aggregation in PRP of rabbits upon in vivo administration; conditions: rabbit, 30 mg/kg oral, 2 hours after administration, *=statistically significant (p 0.05)
Description: as §2
(§4) In carrying out these experiments, the compound is administered orally in a tragacanth suspension. The animals are then bled, 90 minutes (rats) or 2 hours (rabbits), after administration, and the PRP is isolated by centrifuging. After isolating the PRP, the measurement of the aggregation inhibition is conducted in vitro analogously to the process described for Table I, without however any preincubation of the samples. Three parts of the rat PRP are furthermore diluted with 1 part of physiological sodium chloride solution.

[3] = system: thrombocyte aggregation in PRP of rats; assay: Inhibition of ADP-induced thrombocyte aggregation in PRP of rats upon in vivo administration; conditions: rat, 30 mg/kg oral, 90 minutes after administration, *=statistically significant (p 0.05)
Description: as §2, §4

Rat PRP = assay: In vitro ADP-induced thrombocyte aggregation inhibition, rat PRP; type: cell-based; conditions: 10 min preincubation, 37° C.
Description: as §1, §2, §3

[4] = system: thrombocyte aggregation in PRP of rats; assay: Inhibition of collagen-induced thrombocyte aggregation in PRP of rats upon in vivo administration; conditions: rat, 10 mg/kg oral, 90 minutes after administration, *=statistically significant (p 0.05)
Description: as §2, §4

Human PRP = assay: In vitro ADP-induced thrombocyte aggregation inhibition, human PRP; type: cell-based; conditions: 10 min preincubation, 37° C.
Description: as §1, §2, §3

[5] = system: thrombocyte aggregation in PRP of rabbits; assay: Inhibition of collagen-induced thrombocyte aggregation in PRP of rabbits upon in vivo administration; conditions: rabbit, 30 mg/kg oral, 2 hours after administration, *=statistically significant (p 0.05)
Description: as §2, §4

ADP-induced aggregation [6] = assay: ADP-induced aggregation in vitro (summary statement); type: cell-based; conditions: relative to the compounds according to the invention
Description: as §1, §2

ADP-induced aggregation [7] = assay: Activity in vivo at the tested doses (summary statement)
Description: as §4

[8] = system: thrombus formation in left carotid artery of a rat; assay: Inhibition of thrombus formation in vivo (rat carotid artery); conditions: 30 mg/kg oral, immediately before the procedure, thrombus isolated 4 hours later
Description: In this experiment, the left carotid artery of a rat is exposed and cooled to minus 15° C. to stimulate thrombus formation. At the same time, the blood flow is reduced by means of a silver clip. The thrombus is isolated from the artery 4 hours later and is weighted. The table indicates the percentage reduction in weight of the thrombus when the test compound is administered immediately before the procedure.

Rabbit PRP [9] = assay: In vitro collagen-induced thrombocyte aggregation inhibition, rabbit PRP; type: cell-based; conditions: Oryctolagus cuniculus, 10 min preincubation, 37° C.
Description: as §1, §2, §3

SMILES	IC50 (Rabbit PRP [1])	Percent inhibition (1) (integrated area) [2]	Percent inhibition (2) (amplitude) [2]	Percent inhibition (1) (integrated area) [3]	Percent inhibition (2) (amplitude) [3]	IC50 (Rat PRP)	Percent inhibition (1) (integrated area) [4]	Percent inhibition (2) (amplitude) [4]	IC50 (Human PRP)	Percent inhibition (1) (integrated area) [5]	Percent inhibition (2) (amplitude) [5]	activity in vitro (ADP-induced aggregation [6])	activity in vivo (ADP-induced aggregation [7])	Percentage inhibition (percentage reduction in weight of the thrombus) [8]	IC50 (Rabbit PRP [9])
CC(=O)Oc1ccccc1C(=O)O [Acetylsalicylic acid]	> 10 µg/mL	15%	6%	15%	27%	> 10 µg/mL	31%	35%	> 100 µg/mL	63%	58%				
O=C1C(CC[S+]([O-])c2ccccc2)C(=O)N(c2ccccc2)N1c1ccccc1 (centres unmarked) [Sulfinepyrazone]					-5%	> 10 µg/mL	-3%	0%	> 100 µg/mL			substantially less active in vitro	inactive at the tested doses in vivo		
OCCN(CCO)c1nc(N2CCCCC2)c2nc(N(CCO)CCO)nc(N3CCCCC3)c2n1 [Dipyridamol]					-23%	> 10 µg/mL	5%	7%	> 100 µg/mL			substantially less active in vitro	inactive at the tested doses in vivo	17 Percentage	
CCN(CC)CCn1sc2cc(C)cc(C)c2c1=O [Compound A, 2-(2-diethylaminoethyl)-4,6-dimethyl-1,2-benzisothiazolin-3-one]	1 µg/mL (≈ 3.59 µM)	33%	54%	45%	77%	1 µg/mL (≈ 3.59 µM)	72%	71%		74%	72%			48 Percentage	1 µg/mL (≈ 3.59 µM)
